Measurements: patent publication US20150344466A1 (SUMITOMO CHEMICAL COMPANY, LIMITED, priority 2013, published 2015)

Assays:
Type in all cases: in vivo
Aphis gossypii = assay: Soil treatment test on Aphis gossypii on cucumber (Test Example 9); conditions: 168 h, 5 ml treatment solution in contact with soil, seven days after putting insects, read-out: controlling value
Protocol: On the other hand, cucumber was planted in a polyethylene cup with a plurality of small holes on the bottom and grown until the first true leaf was spread. A cup in which cucumber was planted was put in a plastic cup with 5 ml of the test treatment solution, so that the soil in the cup was in contact with the treatment liquid. After five days, about 20Aphis gossypii were allowed to parasitize the cucumber, and seven days after putting insects, the number of Aphis gossypii was investigated, and the controlling value was calculated according to the following equation. Controlling value (%)={1−(Cb×Tai)/([…])}×100 In the equation, the symbols represent as follows. Cb: the number of insects in a non-treated section before treatment Cai: the number of insects in a non-treated section on observation Tb: the number of insects in a treated section before treatment Tai: the number of insects in a treated section on observation

Culex pipiens pallens [1] = assay: Knockdown spray test on adult Culex pipiens pallens (Test Example 4); conditions: topical, 0.25 h, active ingredient 0.1% w/v, 0.5 ml sprayed, within 15 minutes, read-out: knockdown rate of the test insects within 15 minutes
Procedure, shortened: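 Knockdown counts were taken 2, 5 and 15 min after spraying and expressed as percent of the 10 adults tested. For the spray, 0.5 ml of solution was applied by spray gun (0.4 kg/cm^2) from 30 cm above a gauze-covered cup in a test chamber; the cup was taken out right after spraying.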

Culex pipiens pallens [2] = assay: Larvicidal test on Culex pipiens pallens, one day (Test Example 6); conditions: 24 h; last-instar larvae of Culex pipiens pallens; 3.5 ppm in water; one day later; read-out: death rate
Protocol: Each of the formulations of Compounds of Present Invention (39), (63), (71), (72), (92), (93), (95), (106), (150), (171), (170), (181), (182), (183), (187), (188), (189), (190), (191), (192), (200), (201), (201), (234), (246), (290) and (299) obtained in Formulation Example 15 was diluted with water, so as to have a concentration of the active ingredient of 500 ppm, to prepare a test drug solution.
(§1) 20 last-instar larvae of Culex pipiens pallens were released into a liquid to which 0.7 ml of the above test drug solution was added to 100 ml of ion-exchanged water (a concentration of the active ingredient of 3.5 ppm). One day later, the life and death of the Culex pipiens pallens was examined, and the death rate was calculated. The death rate was calculated by the following equation.
(§2) Death rate (%)=(Number of dead insects/Number of tested insects)×100

Culex pipiens pallens [3] = assay: Larvicidal test on Culex pipiens pallens, eight days (Test Example 7); conditions: 192 h; last-instar larvae of Culex pipiens pallens; 3.5 ppm in water; eight days later; read-out: death rate
Protocol: as §1, with “Eight days” for “One day”
as §2

Plutella xylostella = assay: Foliar spray test on Plutella xylostella on cabbage (Test Example 10); conditions: 120 h, third instar larvae of Plutella xylostella on cabbage, 500 ppm spray 20 ml/cup, after five days, read-out: controlling value
Procedure, shortened: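 Cabbage at the third–fourth true-leaf stage sprayed with test solution at 20 ml/cup, dried, then infested with 10 third-instar larvae. Insects counted after five days; controlling value (%) calculated from treated and non-treated counts before treatment and at observation.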

Blattella germanica [4] = assay: Knockdown spray test on Blattella germanica, 0.1% w/v oil formulation (Test Example 2); conditions: topical, 0.25 h, active ingredient 0.1% w/v, 1.5 ml sprayed, within 15 minutes, read-out: knockdown rate of the test insects within 15 minutes
Procedure, shortened: (§3)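 Ten German cockroaches (5 males, 5 females) in a mesh-bottomed, butter-walled container were sprayed with 1.5 ml test solution from 60 cm at 0.42 kg/cm^2 inside a chamber.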

Musca domestica [5] = assay: Filter paper/sucrose bait death rate test on Musca domestica (Test Example 5); conditions: female imagoes of Musca domestica, 0.7 ml on filter paper, after 24 hours
Procedure, shortened: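 Ten female imagoes were confined in a sealed cup over a filter paper treated with 0.7 ml of test solution and 30 mg sucrose bait. Mortality was scored at 24 h and expressed as percent of tested insects killed.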

Blattella germanica [6] = assay: Knockdown spray test on Blattella germanica, 2.0% w/v oil formulation (Test Example 1); conditions: topical, 0.25 h, active ingredient 2.0% w/v, 1.5 ml sprayed, within 15 minutes, read-out: knockdown rate of the test insects within 15 minutes
Procedure, shortened: as §3

Spodoptera litura = assay: Foliar spray test on Spodoptera litura on cabbage (Test Example 11); conditions: 96 h, fourth instar larvae of Spodoptera litura on cabbage, 500 ppm spray 20 ml/cup, after 4 days, read-out: controlling value
Protocol: On the other hand, cabbage was planted in a polyethylene cup, and grown until the third-fourth true leaf was spread. The test spray solution was sprayed to the cabbage at a ratio of 20 ml/cup. After the drug solution sprayed orn the cabbage was dried, 10 fourth instar larvae of Spodoptera litura were allowed to parasitize the cabbage. After 4 days, the number of surviving Spodoptera litura on the cabbage leaves was examined, and the controlling value was calculated according to the following equation. Controlling value (%)={1−(Cb×Tai)/([…])}×100 In the equation, the symbols represent as follows. Cb: the number of insects in a non-treated section before treatment Cai: the number of insects in a non-treated section on observation Tb: the number of insects in a treated section before treatment Tai: the number of insects in a treated section on observation

Musca domestica [7] = assay: Knockdown spray test on adult Musca domestica (Test Example 3); conditions: topical, 0.25 h, active ingredient 2.0% w/v, 0.5 ml sprayed, within 15 minutes, read-out: knockdown rate of the test insects within 15 minutes
Procedure, shortened: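 Ten adult house flies (5 male, 5 female) in a gauze-covered cup sprayed with 0.5 ml test solution from 30 cm at 0.9 kg/cm^2 inside a chamber, then removed. Knocked-down flies counted at 2, 5 and 15 min and expressed as % of insects tested.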

| Compound | pest or weed control at 500 ppm (Aphis gossypii) [%] | pest or weed control at 0.1 % strength (Culex pipiens pallens [1]) [%] | pest or weed control at 3.5 ppm (Culex pipiens pallens [2]) [%] | pest or weed control at 3.5 ppm (Culex pipiens pallens [3]) [%] | pest or weed control at 500 ppm (Plutella xylostella) [%] | pest or weed control at 0.1 % strength (Blattella germanica [4]) [%] | pest or weed control at 500 ppm (Musca domestica [5]) [%] | pest or weed control at 2 % strength (Blattella germanica [6]) [%] | pest or weed control at 500 ppm (Spodoptera litura) [%] | pest or weed control at 2 % strength (Musca domestica [7]) [%] |
| --- | --- | --- | --- | --- | --- | --- | --- | --- | --- | --- |
| CCCCc1noc(C(=O)NCC2CCOC2)n1 (stereo not shown) [(58), N-(tetrahydrofuran-3-ylmethyl)-3-butyl-1,2,4-oxadiazole-5-carboxamide] | ≥ 90 | – | – | – | – | – | – | – | – | – |
| O=C(NCC1CCOC1)c1cc(COc2ccc(C(F)(F)F)cc2)on1 (stereo not shown) [(188), N-(tetrahydrofuran-3-ylmethyl)-5-(4-trifluorophenoxymethyl) isoxazole-3-carboxamide] | – | ≥ 80 | ≥ 90 | ≥ 90 | ≥ 90 | – | – | – | – | – |
| O=C(NCC1CCOC1)c1cc(COCc2ccc(OC(F)(F)F)cc2)on1 (stereo not shown) [(93), N-(tetrahydrofuran-3-ylmethyl)-5-(4-trifluoromethoxybenzyloxymethyl)isoxazole-3-carboxamide] | – | ≥ 80 | ≥ 90 | ≥ 90 | ≥ 90 | ≥ 80 | – | – | – | – |
| Cn1nc(COCc2ccccc2)cc1C(=O)NCC1CCOC1 (stereo not shown) [(52), N-(tetrahydrofuran-3-ylmethyl)-3-benzyloxymethyl-1-methyl-1H-pyrazole-5-carboxamide] | ≥ 90 | – | – | – | – | – | – | – | – | – |
| Cc1c(C(=O)NCC2CCOC2)noc1CCCc1ccc2ccccc2c1 (stereo not shown) [(290), N-(tetrahydrofuran-3-ylmethyl)-4-methyl-5-[3-(2-naphthyl)propyl]isoxazole-3-carboxamide] | – | ≥ 80 | ≥ 90 | – | ≥ 90 | ≥ 80 | ≥ 90 | ≥ 80 | ≥ 80 | ≥ 80 |
| O=C(NCC1CCOC1)c1cc(COCc2ccc(Cl)c(Cl)c2)on1 (stereo not shown) [(72), N-(tetrahydrofuran-3-ylmethyl)-5-(3,4-dichlorobenzyloxymethyl)isoxazole-3-carboxamide] | – | ≥ 80 | ≥ 90 | – | ≥ 90 | ≥ 80 | ≥ 90 | – | ≥ 80 | – |
| CCCc1cc(C(=O)NCC2CCOC2)n(C)n1 (stereo not shown) [(3), N-(tetrahydrofuran-3-ylmethyl)-1-methyl-3-propyl-1H-pyrazole-5-carboxamide] | ≥ 90 | – | – | – | – | – | – | – | – | – |
| O=C(NCC1CCOC1)c1cc(COc2ccc(OC(F)(F)F)cc2)on1 (stereo not shown) [(190), N-(tetrahydrofuran-3-ylmethyl)-5-(4-trifluoromethoxyphenoxymethyl)isoxazole-3-carboxamide] | – | ≥ 80 | ≥ 90 | ≥ 90 | ≥ 90 | ≥ 80 | – | – | ≥ 80 | – |
| O=C(NCC1CCOC1)c1cc(COCc2ccc(C(F)(F)F)cc2)on1 (stereo not shown) [(63), N-(tetrahydrofuran-3-ylmethyl)-5-(4-trifluoromethylbenzyloxymethyl)isoxazole-3-carboxamide] | – | ≥ 80 | ≥ 90 | ≥ 90 | – | – | – | ≥ 80 | – | ≥ 80 |
| O=C(NCC1CCOC1)c1cc(COc2cccc(OC(F)(F)F)c2)on1 (stereo not shown) [(200), N-(tetrahydrofuran-3-ylmethyl)-5-(3-trifluoromethoxyphenoxymethyl)isoxazole-3-carboxamide] | – | ≥ 80 | ≥ 90 | ≥ 90 | – | ≥ 80 | ≥ 90 | – | ≥ 80 | – |
| O=C(NCC1CCOCC1)c1cc(COc2ccc(OC(F)(F)F)cc2)on1 [(191), N-(tetrahydropyran-4-ylmethyl)-5-(4-trifluoromethoxyphenoxymethyl)isoxazole-3-carboxamide] | – | ≥ 80 | ≥ 90 | ≥ 90 | ≥ 90 | – | – | – | ≥ 80 | – |
| O=C(NCC1CCOCC1)c1cc(COc2cccc(OC(F)(F)F)c2)on1 [(201), N-(tetrahydropyran-4-ylmethyl)-5-(3-trifluoromethoxyphenoxymethyl)isoxazole-3-carboxamide] | – | ≥ 80 | ≥ 90 | ≥ 90 | ≥ 90 | – | – | – | ≥ 80 | – |
| O=C(NCC1CCOCC1)c1cc(COc2ccc(Br)cc2)on1 [(187), N-(tetrahydropyran-4-ylmethyl)-5-(4-bromophenoxymethyl)isoxazole-3-carboxamide] | – | ≥ 80 | ≥ 90 | ≥ 90 | – | – | – | – | – | – |
| O=C(NCC1CCOC1)c1cc(COc2ccc(SC(F)(F)F)cc2)on1 (stereo not shown) [(192), N-(tetrahydrofuran-3-ylmethyl)-5-(4-trifluoromethylthiophenoxymethyl)isoxazole-3-carboxamide] | – | ≥ 80 | ≥ 90 | ≥ 90 | – | – | – | – | – | – |
| O=C(NCC1CCOC1)c1cc(CCCc2ccc(Cl)c(Cl)c2)on1 (stereo not shown) [(246), N-(tetrahydrofuran-3-ylmethyl)-5-[3-(3,4-dichlorophenyl)propyl]isoxazole-3-carboxamide] | – | ≥ 80 | ≥ 90 | – | ≥ 90 | ≥ 80 | ≥ 90 | – | ≥ 80 | – |
| O=C(NCC1CCOCC1)c1cc(COCc2ccc(Br)cc2)on1 [(92), N-(tetrahydropyran-4-ylmethyl)-5-(4-bromobenzyloxymethyl)isoxazole-3-carboxamide] | – | ≥ 80 | ≥ 90 | ≥ 90 | ≥ 90 | ≥ 80 | – | – | – | – |
| O=C(NCC1CCOC1)c1cc(COc2ccc(Cl)c(Cl)c2)on1 (stereo not shown) [(182)] | – | ≥ 80 | ≥ 90 | ≥ 90 | – | – | – | – | – | – |
